This note sets out measurements from patent US20260138976A1 (Hoffmann-La Roche Inc., priority 2022, published 2026).

SMILES strings stand for the structures.

The test system of experiment [1] is primary human T-cells. Put plainly: IL2 secretion measurements (24 h, CD3-stimulated T-cells, PBS counter screen). The experiment is classed as cell-based. The settings on record: for Emax IL2 (% activation): CD3 condition, normalised to DMSO (neutral) and 20 μM reference compound A1 = 100%; for EC50: Homo sapiens, T-cell, CD3-stimulated primary human T-cells, IL2 secretion, fitted sigmoidal curve, read-out: Tcell IL2 CD3 EC50. How it is done: As readouts for T-cell activation, 1L2 secretion after 24 hours and proliferation after 5 days was measured. Increases in IL2 secretion and proliferation upon compound treatment were assessed as the % of the maximum of reference compound A1. WO 2016/139181 discloses reference compound A1 as example 70. As a counter screen and to make sure that no unwanted TCR-independent activation was triggered, PBS conditions were run for all compounds.
Expanded primary human T-cells were thawed and cultured in RPMI 1640 (Gibco, #61870-010)+5% human serum (HS, Sigma, #H3667)+1 mM Sodium Pyruvate (Gibco, #11360-039)+50 μM 2-mercaptoethanol (Gibco, #31350-010) and 1× Pen-Strep (Life Technologies, #15140122) medium at density of 2 Mio/ml for 3 hours in 5% CO2, 37° C. and 95% humidity. For coating of plates, […] or PBS++ with CD3 antibody (concentration depending on donor and determined by CD3 titrations) was added 100 μl/well to Poly-D Lysine coated 96-well plates. Plates were sealed and incubated at room temperature for 3 hours on a table-top rocking platform. After incubation, plates were washed once with PBS−− and filled with 40 μl/well culture medium only. Compounds were then added (see next section) to medium only plates. After 3 hours of culturing the T-cells, cells were filtered through a cell strainer (Miltenyi Biotech, #130-041-407), counted again and concentration was adjusted to 1.25 Mio/ml.
Cells were then seeded 80 μl/well to the 40 μl/well including dispensed compounds according to plate layout. By adding cells, compounds were further diluted 1:3, and resulting in 100 k cells/120 μl/well. After 24 hours 40 μl of supernatant was collected carefully from the top while not disturbing the cells and transferred into a round bottom 96 well plate. Collected and frozen supernatant was used for detection of IL2 using the IL-2 Human ProQuantum Immunoassay Kit (Invitrogen) or using the Human IL-2 ELISA Kit (Thermo Fisher).
Compounds were added in a 5 or 6 pt dose response with the Tecan D300e Digital Dispenser, all conditions 3 times more concentrated than the end-concentration, since cells are added afterwards (80 μl cells to 40 μl prepared medium with treatment). The DR was starting at 20 μM or 10 μM final top concentration and a dilution factor of 3.333. The positive control was the reference compound A1 that was added in a dose response as well, additionally to 3 wells of only 20 μM representing the positive stimulator control. All wells were normalized with DMSO to a final concentration of 0.6% (0.2% end-concentration).
The immunoassay is done following the manufacturer's manual (Invitrogen, #A35603). Additional information: For the immunoassay, MicroAmp™ EnduraPlate™ Optical 384-Well plates are used. Frozen supernatant is thawed and centrifuged for 5 minutes at 1000×g, both steps at 4° C. After centrifugation, required sample amount is taken from the top, and in a separate LightCycler V-bottom plate (working plate) diluted with assay dilution buffer, dilution factor depending on the PBS or CD3 condition but at least 1:3. IL-2 standard and blanks are prepared in the same V-bottom plate, standard with a range of 0.0128-5000 pg/ml (extended version). After preparation, 5 μl of sample dilutions or standard/blanks are transferred to the optical 384-well plate (assay plate) and the 10 μl reaction protocol is being followed. For measurement, the QuantStudio 12K Flex system is used. Raw data is extracted and IL-2 concentrations are calculated with the Thermo Fisher online app (apps.thermofisher.com/apps/proquantum).
ELISA is done following the manufacturer's manual (Thermo Fisher Scientific, #88-7025-88). Additional information: For the ELISA Nunc MaxiSorp 96 well plates are used. Frozen supernatant is thawed and centrifuged for 5 minutes at 1000×g, both steps at 4° C. […]

In experiment [2] the test system is primary human T-cells. The experiment in a line: Proliferation assay (5 days, CellTiter-Glo, CD3-stimulated T-cells). The settings on record: for Emax proliferation (% activation): CD3 condition, normalised to DMSO (neutral) and 20 μM reference compound A1 = 100%; for EC50: Homo sapiens, T-cell, 120 h, CD3-stimulated primary human T-cells, 5 days, CellTiter-Glo, fitted sigmoidal curve, read-out: Tcell Proliferation CD3 EC50. The experiment is classed as cell-based. In short, it runs like this: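 Proliferation read-out: ATP luminescence (CellTiter-Glo 2.0) at day 5 in expanded primary human T-cells on CD3 antibody-coated plates, with PBS-only plates as a counter screen. Compounds in 5–6 pt series (factor 3.333, top 20 or 10 μM final). Values are normalized to DMSO (neutral) and 20 μM reference A1 (100%), from sigmoidal fits.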

As for `N[C@H]1CS(=O)(=O)c2ccc(-c3nnc(N4CCC(F)(F)CC4)o3)cc2N(Cc2ccc(-n3ccc(C(F)(F)F)n3)cc2)C1=O` [Example 162, (3R)-3-amino-7-[5-(4,4-difluoro-1-piperidyl)-1,3,4-oxadiazol-2-yl]-1,1-dioxo-5-[[4-[3-(trifluoromethyl)pyrazol-1-yl]phenyl]methyl]-2,3-dihydro-1λ^6,5-benzothiazepin-4-one], in the experiment with primary human T-cells [1], the “Emax IL2 (% activation)” value was found to be 185 % activation and the EC50 was 1410 nM. Also, in the experiment with primary human T-cells [2], the “Emax proliferation (% activation)” value stood at 186 % activation and the EC50 was determined as 563 nM.
Take `N[C@H]1CS(=O)(=O)c2cc(F)c(-c3noc(N4CCOC(F)(F)C4)n3)cc2N(Cc2ccc(-c3ccc(C(F)(F)F)cc3)nc2)C1=O` [Example 13, (3R)-3-amino-7-[5-(2,2-difluoromorpholin-4-yl)-1,2,4-oxadiazol-3-yl]-8-fluoro-1,1-dioxo-5-[[6-[4-(trifluoromethyl)phenyl]-3-pyridyl]methyl]-2,3-dihydro-1λ^6,5-benzothiazepin-4-one]: in the experiment with primary human T-cells [1], the “Emax IL2 (% activation)” value is 26 % activation and the EC50 is more than 10000 nM. Moreover, in the experiment on primary human T-cells [2], the “Emax proliferation (% activation)” value amounted to 84 % activation and the EC50 stood at 1080 nM.
On to `N[C@H]1CS(=O)(=O)c2ccc(-c3nnc(C4(C(F)F)CNC4)o3)cc2N(Cc2ccc(-c3ccc(C(F)(F)F)cc3)cc2)C1=O` [Example 152], for which, in the experiment on primary human T-cells [1], the “Emax IL2 (% activation)” value was 19 % activation and the EC50 was more than 10000 nM. In the experiment with primary human T-cells [2], the “Emax proliferation (% activation)” value came out at 90 % activation and the EC50 worked out at 1440 nM.
With `CC(C#N)c1nnc(-c2ccc3c(c2)N(Cc2ccc(-c4noc(C(F)(F)F)n4)cc2)C(=O)[C@@H](N)CS3(=O)=O)o1` (stereo partly drawn) [Example 35, 2-[5-[(3R)-3-amino-1,1,4-trioxo-5-[[4-[5-(trifluoromethyl)-1,2,4-oxadiazol-3-yl]phenyl]methyl]-2,3-dihydro-1λ^6,5-benzothiazepin-7-yl]-1,3,4-oxadiazol-2-yl]propanenitrile], in the experiment with primary human T-cells [1], the “Emax IL2 (% activation)” value is recorded as 193 % activation and the EC50 turned out to be 2150 nM. For the same compound, in the experiment with primary human T-cells [2], the “Emax proliferation (% activation)” value was determined as 99 % activation and the EC50 is 2490 nM.
Consider `N[C@H]1CS(=O)(=O)c2ccc(-c3nnc(C4(C5CC5)CCCO4)o3)cc2N(Cc2ccc(-c3noc(C(F)(F)F)n3)cc2)C1=O` (stereo partly drawn) [Example 36, (3R)-3-amino-7-[5-(2-cyclopropyl-tetrahydrofuran-2-yl)-1,3,4-oxadiazol-2-yl]-1,1-dioxo-5-[[4-[5-(trifluoromethyl)-1,2,4-oxadiazol-3-yl]phenyl]methyl]-2,3-dihydro-1λ^6,5-benzothiazepin-4-one], for which, in the experiment on primary human T-cells [1], the “Emax IL2 (% activation)” value was determined as 223 % activation and the EC50 stood at 616 nM. For the same compound, in the experiment on primary human T-cells [2], the “Emax proliferation (% activation)” value was 108 % activation and the EC50 was found to be 91.7 nM.
On the same counts, the results for `N[C@H]1CS(=O)(=O)c2cc(F)c(-c3noc(C4(N)COC4)n3)cc2N(Cc2ccc(-c3noc(C(F)(F)F)n3)cc2)C1=O` [Example 9, (3R)-3-amino-7-[5-(3-aminooxetan-3-yl)-1,2,4-oxadiazol-3-yl]-8-fluoro-1,1-dioxo-5-[[4-[5-(trifluoromethyl)-1,2,4-oxadiazol-3-yl]phenyl]methyl]-2,3-dihydro-1λ^6,5-benzothiazepin-4-one] are 558 % activation, 1100 nM, 163 % activation and 506 nM.
Turning to `N[C@H]1CS(=O)(=O)c2cc(F)c(-c3noc(C4(CO)CCCO4)n3)cc2N(Cc2ccc(-c3noc(C(F)(F)F)n3)cc2)C1=O` (stereo partly drawn) [Example 18, (3R)-3-amino-8-fluoro-7-[5-[2-(hydroxymethyl)tetrahydrofuran-2-yl]-1,2,4-oxadiazol-3-yl]-1,1-dioxo-5-[[4-[5-(trifluoromethyl)-1,2,4-oxadiazol-3-yl]phenyl]methyl]-2,3-dihydro-1λ^6,5-benzothiazepin-4-one], in the experiment with primary human T-cells [1], the “Emax IL2 (% activation)” value was determined as 529 % activation and the EC50 turned out to be 849 nM. In the experiment with primary human T-cells [2], the “Emax proliferation (% activation)” value amounted to 275 % activation and the EC50 is 445 nM.
On to `N[C@H]1CS(=O)(=O)c2ccc(-c3nnc(C4(N)CCCCC4)o3)cc2N(Cc2ccc(-c3noc(C(F)(F)F)n3)cc2)C1=O` [Example 39, (3R)-3-amino-7-[5-(1-aminocyclohexyl)-1,3,4-oxadiazol-2-yl]-1,1-dioxo-5-[[4-[5-(trifluoromethyl)-1,2,4-oxadiazol-3-yl]phenyl]methyl]-2,3-dihydro-1λ^6,5-benzothiazepin-4-one], for which, in the experiment on primary human T-cells [1], the “Emax IL2 (% activation)” value was 143 % activation and the EC50 was determined as 622 nM. Besides, in the experiment on primary human T-cells [2], the “Emax proliferation (% activation)” value turned out to be 91 % activation and the EC50 turned out to be 181 nM.
With `CC(C)(C#N)c1nnc(-c2cc3c(cc2F)S(=O)(=O)C[C@H](N)C(=O)N3Cc2ccc(-c3ccc(C(F)(F)F)cn3)cc2)o1` [Example 88, 2-[5-[(3R)-3-amino-8-fluoro-1,1,4-trioxo-5-[[4-[5-(trifluoromethyl)-2-pyridyl]phenyl]methyl]-2,3-dihydro-1λ^6,5-benzothiazepin-7-yl]-1,3,4-oxadiazol-2-yl]-2-methyl-propanenitrile], in the experiment on primary human T-cells [1], the “Emax IL2 (% activation)” value worked out at 121 % activation and the EC50 was found to be 264 nM. Besides, in the experiment with primary human T-cells [2], the “Emax proliferation (% activation)” value was found to be 106 % activation and the EC50 is 45.1 nM.
Regarding `N[C@H]1CS(=O)(=O)c2ccc(-c3nnc(C4(CO)CCCO4)o3)cc2N(Cc2ccc(-c3noc(C(F)(F)F)n3)cc2)C1=O` (stereo partly drawn) [Example 54, (3R)-3-amino-7-[5-[2-(hydroxymethyl)tetrahydrofuran-2-yl]-1,3,4-oxadiazol-2-yl]-1,1-dioxo-5-[[4-[5-(trifluoromethyl)-1,2,4-oxadiazol-3-yl]phenyl]methyl]-2,3-dihydro-1λ^6,5-benzothiazepin-4-one], in the experiment on primary human T-cells [1], the “Emax IL2 (% activation)” value came out at 126 % activation and the EC50 came out at 3340 nM. Moreover, in the experiment with primary human T-cells [2], the “Emax proliferation (% activation)” value is recorded as 94 % activation and the EC50 was 892 nM.
In the case of `CC(C)(C#N)c1nnc(-c2ccc3c(c2)N(Cc2ccc(-c4nc(C(F)(F)F)co4)cc2)C(=O)[C@@H](N)CS3(=O)=O)o1` [Example 123, 2-[5-[(3R)-3-amino-1,1,4-trioxo-5-[[4-[4-(trifluoromethyl)oxazol-2-yl]phenyl]methyl]-2,3-dihydro-1λ^6,5-benzothiazepin-7-yl]-1,3,4-oxadiazol-2-yl]-2-methyl-propanenitrile], in the experiment with primary human T-cells [1], the “Emax IL2 (% activation)” value stood at 144 % activation and the EC50 stood at 1250 nM. In the experiment on primary human T-cells [2], the “Emax proliferation (% activation)” value is on record as 103 % activation and the EC50 was 860 nM.
Take `N#CC1(c2nnc(-c3ccc4c(c3)N(Cc3ccc(-c5ccc(OC(F)(F)F)cn5)cc3)C(=O)[C@@H](N)CS4(=O)=O)o2)CCC1` [Example 172, 1-[5-[(3R)-3-amino-1,1,4-trioxo-5-[[4-[5-(trifluoromethoxy)-2-pyridyl]phenyl]methyl]-2,3-dihydro-1λ^6,5-benzothiazepin-7-yl]-1,3,4-oxadiazol-2-yl]cyclobutanecarbonitrile]: in the experiment on primary human T-cells [1], the “Emax IL2 (% activation)” value is recorded as 120 % activation and the EC50 was 1090 nM. Moreover, in the experiment on primary human T-cells [2], the “Emax proliferation (% activation)” value is listed as 101 % activation and the EC50 amounted to 303 nM.
